# Measurements reported in PMC8175350, “Drug repurposing screens identify chemical entities for the development of COVID-19 interventions” (Nature Communications, 2021).
# Several values for one entry are separate records, joined by “and”; a condition that tells them apart may be missing. Equal values may be shown once. Where a name gives a salt, the structure may show the parent alone. Read-outs that look alike come from different tables or passages of the source.
# Legend:
# [1] = system: Calu-3 cells; assay: cells; conditions: Homo sapiens; for EC50: Calu-3, read-out: Calu-3 cell count EC50 GeoMean
# [2] = system: Calu-3 cells; assay: Uninfected Calu-3 48 h Cell-Titer Glo cytotoxicity counter screen; conditions: curve plateau at infinite concentration
# [3] = as above; conditions: human, uninfected Calu-3 cells, Calu-3 Uninf. cells CC50 (µM), reconfirmed hits
# [4] = system: SARS-CoV-2; assay: microbe, parasite or virus in culture; assay type: cell-based; conditions: for Emax: Severe acute respiratory syndrome coronavirus 2, HeLa-ACE2, 24 h, read-out: HeLa-ACE2 CoV-2 Sinf Average
# [5] = ref [33]-[49], cited from earlier work
# [6] = system: SARS-CoV-2; assay: Hamster lung viral titer by plaque assay, day 5; assay type: in vivo, Golden Syrian hamster; conditions: 500 mg/kg PO; values look like log10
# [7] = system: SARS-CoV-2; assay type: cell-based; conditions: for HeLa-ACE2 synergy score with remdesivi [δ]: combination with remdesivir
# [8] = system: SARS-CoV-2; assay: Golden Syrian hamster SARS-CoV-2 efficacy model, body weight; assay type: in vivo; conditions: for hamster weight relative to day 0, individual animals: 500 mg/kg PO
# [9] = system: SARS-CoV-2; assay: microbe, parasite or virus in culture; assay type: cell-based; conditions: for Emax: Severe acute respiratory syndrome coronavirus 2, HeLa-ACE2, 10 h, curve plateau at infinite concentration, read-out: HeLa-ACE2 TOA CoV-2 Sinf Average; for EC50: read-out: HeLa-ACE2 TOA CoV-2 EC50 GeoMean
# [10] = Pharmacokinetic studies in Syrian hamsters, PO; assay type: in vivo; conditions: 500 mg/kg PO; for AUC(0-t): po, 500 mg/kg
# Procedure: Pharmacokinetic studies were conducted at Scripps Research Institute’s Animal Models Core in accordance with IACUC guidelines (IACUC Protocol #09-0004-5). Eight-week-old male Syrian Hamsters (Charles River; three per group) were dosed PO as indicated for each compound and formulation. Plasma concentration of each test article was monitored up to 48 h. Nelfinavir was formulated in 10% DMSO/90% corn oil and MK-4482 was formulated in 10% PEG400/2.5% Cremaphor RH40 for both pharmacokinetic and efficacy studies.
# [11] = system: HeLa-ACE2 cells; assay: cells; conditions: Homo sapiens; for EC50: HeLa-ACE2, read-out: HeLa-ACE2 cell count EC50 GeoMean
# [12] = system: HeLa-ACE2 cells; assay: Uninfected HeLa-ACE2 24 h live/dead cytotoxicity counter screen; assay type: cell-based, human; conditions: curve plateau at infinite concentration
# [13] = as above; assay type: cell-based, human; conditions: human, uninfected HeLa-ACE2 cells
# [14] = system: SARS-CoV-2; assay type: cell-based; conditions: 72 hpi
# [15] = system: HepG2; assay: HepG2 72 h CellTiter-Glo cytotoxicity; conditions: 72 h
# [16] = HepG2 72 h CellTiter-Glo cytotoxicity; conditions: human, HepG2 cells
# [17] = system: HeLa-ACE2 cells; assay: Total cell count in the HeLa-ACE2 TOA assay; assay type: cell-based
# Description: Supplement 41467_2021_23328_MOESM3_ESM.xlsx, sheet "Table S1" | column: HeLa-ACE2 TOA cell count
# [18] = system: SARS-CoV-2; assay: microbe, parasite or virus in culture; assay type: cell-based; conditions: for Emax: Severe acute respiratory syndrome coronavirus 2, Calu-3, 48 h, curve plateau at infinite concentration, read-out: Calu-3 CoV-2 Sinf Average
# [19] = HEK293T 72 h CellTiter-Glo cytotoxicity; conditions: human, HEK293T cells
# [20] = system: HEK293T; assay: HEK293T 72 h CellTiter-Glo cytotoxicity; conditions: 72 h
# [21] = in vitro; conditions: human
# [22] = system: Calu-3 cells
# [23] = system: HEK293T; conditions: human, 72 h
# [24] = in vitro; conditions: human; remark: listed apart in the source
# [25] = in vitro; conditions: human, Calu-3 uninfected cytotoxicity CC50 GeoMean
# [26] = system: HepG2; conditions: human, 72 h
# [27] = system: HeLa-ACE2 cells; assay: Total cell count in the HeLa-ACE2 TOA (time of addition) assay; assay type: cell-based, human; conditions: Homo sapiens, HeLa-ACE2; read-out: HeLa-ACE2 TOA cell count EC50 GeoMean
# [28] = curve plateau at infinite concentration
# [29] = Severe acute respiratory syndrome coronavirus 2, HeLa-ACE2
# [30] = male, Syrian, hamster, plasma, 10%DMSO/90% Corn Oil
# [31] = read-out: HeLa-ACE2 uninfected cytotoxicity CC50 GeoMean
# [32] = Severe acute respiratory syndrome coronavirus 2, HeLa-ACE2, detail column, read-out: HeLa-ACE2 CoV-2 EC50 GeoMean
smiles,measurement,setting,value
Cc1c(O)cccc1C(=O)N[C@@H](CSc1ccccc1)[C@H](O)CN1C[C@H]2CCCC[C@H]2C[C@H]1C(=O)NC(C)(C)C [Nelfinavir mesylate],Emax,"[1]; Calu-3, 48 h, read-out: Calu-3 cell count Sinf Average",79%
same,EC50,[1],0.875 µM
same,Calu-3 uninfected cytotoxicity Sinf Average,[2],-93%
same,CC50 at 48 h,[3],> 9.4 µM
same,Emax,[4]; [28],100%
same,EC50,"[4]; Severe acute respiratory syndrome coronavirus 2, HeLa-ACE2, reconfirmed hits, read-out: HeLa-ACE2 SARS-CoV-2 EC50",> 8.64 µM
same,Approx. t1/2,[5]; human,7 h
same,Cmax,"[5]; read-out: Approx. Cmax, human oral",17 µM
same,"viral titers in lungs, individual animals",[6],9.667 and 7.176 and 8.778 and 9.217
same,Synergy score with remdesivir (δ),[7],−1.23
same,interaction with remdesivir,[7]; ZIP model,additive (Additive effect: -10< δ <10)
same,"dose-response point, normalized infected cells","[7]; alone, Concentration [uM] -7.08145",8.854 and 6.527 and 6.904
same,HeLa-ACE2 synergy score with remdesivi [δ],[7],-1.233
same,protection from weight loss and viral replication,[8]; 500 mg/kg PO BID,failed to protect animals from weight loss and viral replication
same,"hamster weight relative to day 0, individual animals",[8]; Day 1,99.1786 and 96.9182 and 97.0207 and 99.8527
same,"hamster weight relative to day 0, individual animals",[8]; Day 2,97.2793 and 94.4654 and 95.1466 and 96.8581
same,"hamster weight relative to day 0, individual animals",[8]; Day 3,95.4312 and 90.7547 and 93.8011 and 92.8326
same,"hamster weight relative to day 0, individual animals",[8]; Day 4,92.4025 and 86.7925 and 92.1672 and 89.1998
same,"hamster weight relative to day 0, individual animals",[8]; Day 5,90.1951 and 82.0755 and 91.0139 and 86.6961
same,Emax,[9],100%
same,EC50,[9]; [29],> 8.35 µM
same,"plasma level of nelfinavir, individual animals",[10]; 0:30:00,40.7 and 326 and 282
same,"plasma level of nelfinavir, individual animals",[10]; 1:00:00,20.2 and 6320 and 206
same,"plasma level of nelfinavir, individual animals",[10]; 3:00:00,108 and 244 and 71.4
same,"plasma level of nelfinavir, individual animals",[10]; 7:00:00,156 and 276 and 245
same,Cl (mL/min/kg),[10]; 10%DMSO/90% Corn Oil,"2,542.16 mL/min/kg"
same,Vd,[10]; 10%DMSO/90% Corn Oil,706.35 L/kg
same,"plasma level of nelfinavir, individual animals",[10]; 24:00:00,BQL and 41 and 2.73
same,"plasma level of nelfinavir, individual animals",[10]; 32:00:00,BQL and 16.9 and 0.47
same,"plasma level of nelfinavir, individual animals",[10]; 48:00:00,BQL (2×) and 1.81
same,plasma exposure versus HeLa-ACE2 SARS-CoV-2 EC50,[10]; hamster,failed to reach exposures above HeLa-ACE2 SARS-CoV-2 EC50
same,AUC(0-t),"[10]; male, Syrian, hamster, plasma, 10%DMSO/90% Corn Oil, read-out: AUC0-24",3760 ng·h/mL
same,AUC(0-t),"[10]; male, Syrian, hamster, plasma, 10%DMSO/90% Corn Oil, read-out: AUCLAST",3870 ng·h/mL
same,AUC(0-inf),[10]; [30],5480 ng·h/mL
same,Cmax,[10]; [30],2250 ng/mL
same,MRT,[10]; [30],5.82 h
same,Tmax,[10]; [30],2.83 h
same,half-life,[10]; [30],4.02 h
same,EC50,[11],> 9.6 µM
same,HeLa-ACE2 uninfected cytotoxicity Sinf Average,[12],-100%
same,CC50 at 24 h,"[13]; reconfirmed hits, read-out: HeLa-ACE2 Uninf. cells CC50",> 18 µM
same,CC50 at 24 h,[13]; [31],> 18 µM
same,reduction in apical viral loads,[14],> 1 log
same,HepG2 72-hour cytotoxicity Sinf Average,[15],-100%
same,CC50 at 72 h,[16],> 39.8 µM
same,Emax,"[17]; Homo sapiens, HeLa-ACE2, 10 h, read-out: HeLa-ACE2 TOA cell count Sinf Average",100%
same,EC50,"[17]; Homo sapiens, HeLa-ACE2, read-out: HeLa-ACE2 TOA cell count EC50 GeoMean",> 9.6 µM
same,Emax,[18],90%
same,EC50,"[18]; Severe acute respiratory syndrome coronavirus 2, Calu-3, reconfirmed hits, read-out: Calu-3 SARS-CoV-2 EC50",0.361 µM
same,CC50 at 72 h,[19],15.7 µM
same,HEK293T 72-hour cytotoxicty Sinf Average,[20],-100%
COC(=O)C1=C(C)NC(C)=C(C(=O)OCCN2CCN(C(c3ccccc3)c3ccccc3)CC2)C1c1cccc([N+](=O)[O-])c1 (stereo not drawn) [Manidipine (Manyper)],CC50 at 72 h,[21],30.8 µM
same,EC50,[1],> 9.98 µM
same,Emax,[4]; [28],100%
same,EC50,[4]; [32],> 6.89 µM
same,uninfected Calu-3 CC50,[22],> 29.89 ×÷ 1.002 (n=5) μM
same,Calu-3 uninfected cytotoxicity Sinf Average,"[22]; human, 48 h",-100%
same,HeLa-ACE2 synergy score with remdesivi [δ],[7],-4.727
same,Emax,[9],100%
same,EC50,[9]; [29],7.72 µM
same,Emax,"[11]; HeLa-ACE2, 24 h, read-out: HeLa-ACE2 cell count Sinf Average",100%
same,EC50,[11],> 9.6 µM
same,HeLa-ACE2 uninfected cytotoxicity Sinf Average,[12],-96%
same,CC50 at 24 h,[13]; [31],> 17.1 µM
same,HEK293T 72-hour cytotoxicty Sinf Average,[23],-100%
same,CC50 at 72 h,[24],30.7 µM
same,EC50,"[17]; Homo sapiens, HeLa-ACE2; read-out: HeLa-ACE2 TOA cell count EC50 GeoMean",> 9.61 µM
same,Emax,[18],80%
same,EC50,"[18]; Severe acute respiratory syndrome coronavirus 2, Calu-3, detail column, read-out: Calu-3 CoV-2 EC50 GeoMean",> 5.48 µM
same,CC50 at 48 h,[25],> 29.9 µM
same,HepG2 72-hour cytotoxicity Sinf Average,[26],-100%
CC[C@H]1OC(=O)[C@H](C)[C@@H](O[C@H]2C[C@@](C)(OC)[C@@H](O)[C@H](C)O2)[C@H](C)[C@@H](O[C@@H]2O[C@H](C)C[C@H](N(C)C)[C@H]2O)[C@](C)(O)C[C@@H](C)CN(C)[C@H](C)[C@@H](O)[C@]1(C)O [Azithromycin],EC50,[1],> 9.85 µM
same,Emax,[4],100%
same,EC50,[4]; [32],0.65 µM
same,HeLa-ACE2 SI,"[4]; selectivity index, uninfected HeLa-ACE2 CC50 / SARS-CoV-2 EC50",> 61.26
same,EC50,[27],> 9.59 µM
same,TOA:HeLa-ACE2 EC50 Ratio,[9],14.747
same,EC50,"[9]; Severe acute respiratory syndrome coronavirus 2, HeLa-ACE2, detail column",> 9.59 µM
same,EC50,[11],> 9.59 µM
same,CC50 at 24 h,[13]; [31],> 39.8 µM
same,HepG2 72-hour cytotoxicity Sinf Average,[15],-100%
same,CC50,[24],> 39.8 µM
same,EC50,"[18]; Severe acute respiratory syndrome coronavirus 2, Calu-3, read-out: Calu-3 CoV-2 EC50 GeoMean",> 9.85 µM
same,CC50 at 72 h,[19],> 39.8 µM
